Measured values as given in publication PMC3632285 (Journal of controlled release : official journal of the …, 2013).

Experiments:
[1] = test system: human airway epithelial cells (Calu-3); assay: MTT cytotoxicity study in Calu-3 cells; type: cell-based; settings: 0.1% w/v, positive control, cell line not specified in the sentence (Fig. 6A)
[2] = In-vitro drug release in dialysis cassettes, PBS pH 7.4, 37°C; type: physicochemical; settings: plain drug control in dialysis cassette, data not shown
[3] = test system: monocrotaline (MCT)-induced PAH rats; assay: Hemodynamic studies in monocrotaline; type: in vivo, Sprague-Dawley rats; settings: 3 mg/kg
[4] = cited from earlier work
[5] = various storage conditions; cited from earlier work
[6] = test system: PAH patients; settings: dose of 30 or 40 mg; cited from earlier work
[7] = in vivo; settings: male, Sprague-Dawley, rat, 10 mg/kg

SMILES	Cell viability [1] [%]	Drug released in the media [2] [%]	Decrease in MPAP (maximal) ([3]; intratracheal) [%]	Reduction in MSAP ([3]; intratracheal) [%]	Decrease in MPAP (maximal) ([3]; intravenous) [%]	Duration of pulmonary vasodilatory effects (15% reduction in MPAP as baseline) ([3]; intravenous) [min]	Reduction in MSAP ([3]; intravenous) [%]	Duration of pulmonary vasodilatory effects (15% reduction in MPAP as baseline) ([3]; pulmonary (intratracheal)) [min]	pKa [4]	Time over which the drug is stable [5]	Effect on MPAP in PAH patients [6]	bioavailability ([7]; Bioavailability (relative)) [%]	AUC(0-t) ([7]; inhaled or intranasal) [ng·h/mL]	Cmax ([7]; inhaled or intranasal) [ng/mL]	AUC(0-t) ([7]; iv) [ng·h/mL]	Cmax ([7]; iv) [ng/mL]
CCCCCCCCCCCCOS(=O)(=O)[O-].[Na+] [SDS, sodium dodecyl sulfate]	15															
O=S(=O)(c1cccc2cnccc12)N1CCCNCC1 [fasudil]		100	38.3±7.3	38.1±10.8	45.6±17.0	50.0 ± 10.4	45.6±8.4	60.0 ± 15.3	9.727	~ 24 weeks	effective in reducing MPAP	~40	2.33	66.2 ± 13.6	5.71	298 ± 10
